Patent US20240100183A1, “COMPOSITIONS COMPRISING MOLECULES FOR CYSTIC FIBROSIS TREATMENT” (UNiversity of Iowa Research Foundation, priority 2020, published 2024)
≈ marks a conversion by molar mass, not a printed value. Where “and” joins values, the source holds several entries; their conditions need not be identical. Equal entries are not always repeated. Where two headings read alike, the source gives them in different places.

Assays:
[1] = oral 150 mg twice daily; cited from earlier work
[2] = Phase solubility of ivacaftor in cyclodextrin solutions; format: physicochemical; settings: for solubility at 3 days: aqueous with cosolvent or surfactant or cyclodextrin, thermodynamic from solid
Experimental: Excess amounts of powdered ivacaftor were suspended in different concentrations of different types of CD's (up to […] in the case of βCD, and up to […] in the case of αCD, γCD, and HPβCD). The suspensions were shaken at 3000 rpm at room temperature for 3 days. Then, samples were collected and filtered, and the concentration of ivacaftor was determined using HPLC, as described below. An Agilent HPLC workstation series 1100 (Agilent Technologies, Santa Clara, CA) was used for the analysis. The column used was Waters Symmetry C18 5 μm (4.6×150 mm), and the mobile phase consisted of 6:4 acetonitrile: water with 0.1% v/v trifluoroacetic acid (TFA) at a flow rate of 1 ml/min (at 25±2° C.). Detection was carried out using an Agilent Diode array detector (DAD) at 309 nm.

[3] = Ivacaftor solubility in the release medium; format: physicochemical; settings: release medium (polysorbate 80 in DPBS), aqueous with cosolvent or surfactant or cyclodextrin; 0.4% v/v polysorbate 80 in 1×DPBS, 37° C.
[4] = cited from earlier work; for aqueous (water) solubility: room temperature

solubility in βCD relative to aqueous solubility ([2]; 10 μM βCD): about 24 times | solubility in γCD relative to aqueous solubility ([2]; 25 μM γCD): about 10 times | solubility in HPβCD relative to aqueous solubility ([2]; 50 μM HPβCD): about 1000 times | solubility in HPβCD relative to maximum βCD concentration ([2]; 50 μM HPβCD vs 10 μM βCD): about 40 times | solubility in HPβCD relative to αCD and γCD ([2]; 50 μM of each CD): 100-150 times | solubility at 3 days ([2]; HPβCD solution, 50 μM HPβCD, room temperature, 3 days shaking, read-out: ivacaftor solubility in HPβCD solution): 50 µg/mL (≈ 127 µM) | solubility in βCD relative to αCD and γCD ([2]; same concentration (10 μM)): 5-6 times and 5-8 times | solubility at 3 days ([2]; βCD solution, 10 μM βCD, read-out: ivacaftor solubility in βCD solution): 1.2 µg/mL (≈ 3.06 µM) | solubility at 3 days ([2]; γCD solution, 25 μM γCD, read-out: ivacaftor solubility in γCD solution): 0.5 µg/mL (≈ 1.27 µM) | solubility [3]: 272 µg/mL (≈ 692 µM)
Structure (SMILES): CC(C)(C)c1cc(C(C)(C)C)c(NC(=O)c2c[nH]c3ccccc3c2=O)cc1O [Ivacaftor, N-(2,4-Di-tert-butyl-5-hydroxyphenyl)-4-oxo-1,4-dihydroquinoline-3-carboxamide]
half-life [1]: 9 to 12 h | log P [4]: 3.13 | log P ([4]; listed as IVA): 3.3 | aqueous (water) solubility [4]: about 0.05 μg/ml | aqueous (water) solubility ([4]; listed as IVA): < 0.05 µg/mL
